Experimental data from EP4582413A1, “ARYLTETRAHYDROPYRIDINE COMPOUND AND PEST CONTROL AGENT” (priority 2022, dated 2024).

Experiments:
Format in all cases: in vivo
[1] = tested on: brown rice planthoppers (Nilaparvata lugens); experiment: Insecticidal test for brown rice planthoppers; conditions: 500 ppm chemical solution, rice leaf sheaths soaked, third-instar larvae, six days, 25°C; for mortality at 500 µg/mL: Nilaparvata lugens, 144 h, read-out: death rate; for death rate: 8640 min
Method: A 10% by mass emulsion of the presently invented compound prepared according to the above formulation example for an emulsion was diluted with water containing a spreader to prepare a chemical solution having a concentration of 500 ppm. Rice leaf sheaths were soaked in the chemical solution for approximately 10 seconds. After the completion of the soaking operation, the rice leaf sheaths treated with the chemical solution were air-dried, and then put in test tubes. Into each test tube, five third-instar brown rice planthoppers (Nilaparvata lugens) larvae were released, and the test tubes were capped with sponge and accommodated in a thermostatic room at 25°C. Six days after the accommodation, the number of dead brown rice planthoppers individuals in the test tubes were examined, and the death rate was calculated from a calculation formula shown below. The test was carried out in duplicate. [formula]

[2] = tested on: western flower thrips (Frankliniella occidentalis); experiment: Insecticidal activity against western flower thrips; conditions: 500 ppm chemical solution sprinkled (2.5 mg/cm^2), larvae on common bean leaf, after 2 days; for mortality at 500 µg/mL: Frankliniella occidentalis, 48 h, read-out: death rate
Method: Wet filter paper was laid on each styrol cup having an inner diameter of 7 cm, and a common bean leaf cut into a 3 cm square was placed thereon, and inoculated with 20 western flower thrips (Frankliniella occidentalis) larvae. A 10% by mass emulsion of the presently invented compound prepared according to the above formulation example for an emulsion was diluted with water containing a spreader to prepare a chemical solution having a concentration of 500 ppm. For each styrol cup, 2.5 ml of the chemical solution prepared was sprinkled (2.5 mg/cm^2) with a rotary tower sprinkler. […] The test was carried out in duplicate.

[3] = tested on: diamondback moths (Plutella xylostella); experiment: Insecticidal test for diamondback moths; conditions: 500 ppm chemical solution, leaves soaked, third-instar larvae, six days, 25°C; for mortality at 500 µg/mL: Plutella xylostella, 144 h, read-out: death rate; for death rate: 8640 min
Method: A 10% by mass emulsion of the presently invented compound prepared according to the above formulation example for an emulsion was diluted with water containing a spreader to prepare a chemical solution having a concentration of 500 ppm. Chinese olive leaves were soaked in the chemical solution for approximately 10 seconds. After the completion of the soaking operation, the Chinese olive leaves treated with the chemical solution were air-dried, and then put in dishes. Into each dish, five third-instar diamondback moths (Plutella xylostella) larvae were released, and the dishes were capped and accommodated in a thermostatic room at 25°C. […] The test was carried out in duplicate.

[4] = tested on: cat fleas (Ctenocephalides felis); experiment: whole plant or invertebrate; conditions: 72 h, read-out: death rate
Method: In 1 ml of acetone, 1 mg of the presently invented compound was dissolved to prepare a chemical solution having a concentration of 1000 ppm. The bottom surface and side surface of each glass container having an inner wall surface area of 25 cm^2 were coated with 250 µl of the chemical solution, and acetone was then volatilized to form a thin film of the compound on the inner wall of the glass container.
Into each of the treated glass containers, five cat fleas (Ctenocephalides felis) imagoes (mixed-sex) were released, and the glass containers were capped and accommodated in a thermostatic room at 25°C. Three days after the release, the number of dead flea individuals were examined, and the death rate was calculated from the same calculation formula as in Test Example 1.

Row | Compound | mortality at 500 µg/mL [2] | mortality at 500 µg/mL [3] | mortality at 10 µg/cm2 [4] | other results
1 | O=C(Nc1cncc(F)c1Br)C1=C(O)CC(c2cnc(Cl)c(-c3cnccc3F)c2)NC1=O (stereo not drawn) [2-139] | ≥ 90% | ≥ 90% | ≥ 50% | mortality at 500 µg/mL [1]: ≥ 90%
2 | O=C(Nc1cc(Cl)ccn1)C1=C(O)CC(c2nc(-c3ccc(F)cc3F)no2)NC1=O (stereo not drawn) [3-155] | ≥ 90% | ≥ 90% | ≥ 50% | mortality at 500 µg/mL [1]: ≥ 90%
3 | COc1ccc(-c2cc(C3CC(O)=C(C(=O)Nc4ccc(F)cc4)C(=O)N3)ccc2C(F)(F)F)cc1 (stereo not drawn) [1-018] | – | ≥ 90% | ≥ 50% | –
4 | O=C(Nc1ccc([N+](=O)[O-])c(Cl)c1)C1=C(O)CC(c2nc(-c3ccnc(F)c3)no2)NC1=O (stereo not drawn) [3-120] | – | – | – | death rate [2]: ≥ 90%
5 | O=C(Nc1nccs1)C1=C(O)CC(c2cnc(Cl)c(-c3cnccc3F)c2)NC1=O (stereo not drawn) [2-135] | ≥ 90% | ≥ 90% | ≥ 50% | mortality at 500 µg/mL [1]: ≥ 90%
6 | O=C(Nc1ccc(F)cn1)C1=C(O)CC(c2cnc(Cl)c(-c3cnccc3F)c2)NC1=O (stereo not drawn) [2-136] | ≥ 90% | ≥ 90% | ≥ 50% | mortality at 500 µg/mL [1]: ≥ 90%
7 | Cc1cccc(-c2cc(C3CC(O)=C(C(=O)Nc4ccccn4)C(=O)N3)cnc2Cl)c1 (stereo not drawn) [2-260] | ≥ 90% | ≥ 90% | ≥ 50% | mortality at 500 µg/mL [1]: ≥ 90%
8 | Cc1cccc(-c2cc(C3CC(O)=C(C(=O)Nc4cnccn4)C(=O)N3)cnc2Cl)c1 (stereo not drawn) [2-261] | ≥ 90% | ≥ 90% | ≥ 50% | mortality at 500 µg/mL [1]: ≥ 90%
9 | O=C(Nc1ccc(F)cc1)C1=C(O)CC(c2nc(-c3cccc(C(F)(F)F)c3)no2)NC1=O (stereo not drawn) [3-005] | ≥ 90% | ≥ 90% | ≥ 50% | mortality at 500 µg/mL [1]: ≥ 90%
10 | O=C(Nc1cc(F)ccn1)C1=C(O)CC(c2nc(-c3cc(F)ccc3F)no2)NC1=O (stereo not drawn) [3-050] | ≥ 90% | ≥ 90% | ≥ 50% | mortality at 500 µg/mL [1]: ≥ 90%
11 | Cc1cccc(-c2cc(C3CC(O)=C(C(=O)Nc4ccc([N+](=O)[O-])cc4)C(=O)N3)cnc2Cl)c1 (stereo not drawn) [2-279] | ≥ 90% | ≥ 90% | ≥ 50% | –
12 | O=C(Nc1cc(F)ccn1)C1=C(O)CC(c2nc(-c3c(F)cccc3Cl)no2)NC1=O (stereo not drawn) [3-143] | – | ≥ 90% | – | –
13 | C[S+]([O-])c1ccc(NC(=O)C2=C(O)CC(c3cnc(Cl)c(-c4ccc(Cl)nc4)c3)NC2=O)cc1 (stereo not drawn) [2-043] | – | – | – | death rate [1]: ≥ 90%
14 | O=C(Nc1cc(F)ccn1)C1=C(O)CC(c2nc(-c3ccncn3)no2)NC1=O (stereo not drawn) [3-212] | – | ≥ 90% | ≥ 50% | –
15 | O=C(Nc1nncs1)C1=C(O)CC(c2cnc(Cl)c(-c3ccc(F)cc3)c2)NC1=O (stereo not drawn) [2-239] | ≥ 90% | – | – | –
16 | Cc1ccoc1-c1noc(C2CC(O)=C(C(=O)Nc3ccc(F)cn3)C(=O)N2)n1 (stereo not drawn) [3-094] | – | – | – | death rate [1]: ≥ 90%
17 | O=C(Nc1ccccn1)C1=C(O)CC(c2cnc(Cl)c(-c3ccc(F)cc3)c2)NC1=O (stereo not drawn) [2-226] | ≥ 90% | ≥ 90% | ≥ 50% | –
18 | Cc1cncc(-c2cc(C3CC(O)=C(C(=O)Nc4cnccn4)C(=O)N3)cnc2Cl)c1 (stereo not drawn) [2-148] | – | ≥ 90% | ≥ 50% | –
19 | O=C(Nc1cc(F)ccn1)C1=C(O)CC(c2nc(-c3ccc(Cl)c(F)c3)no2)NC1=O (stereo not drawn) [3-145] | ≥ 90% | ≥ 90% | ≥ 50% | –
20 | C#Cc1ccc(NC(=O)C2=C(O)CC(c3cnc(Cl)c(-c4ccc(F)cc4)c3)NC2=O)cc1 (stereo not drawn) [2-243] | – | – | – | death rate [3]: ≥ 90%
21 | N#Cc1ccc(NC(=O)C2=C(O)CC(c3cnc(Cl)c(-c4cncc(F)c4)c3)NC2=O)cc1 (stereo not drawn) [2-071] | ≥ 90% | – | ≥ 50% | mortality at 500 µg/mL [1]: ≥ 90%
22 | O=C(Nc1ccc(Cl)nc1)C1=C(O)CC(c2nc(-c3ccccc3F)no2)NC1=O (stereo not drawn) [3-019] | – | – | – | death rate [3]: ≥ 90%
23 | O=C(Nc1ccc(F)cc1)C1=C(O)CC(c2nc(-c3ccc(Cl)cc3)no2)NC1=O (stereo not drawn) [3-003] | ≥ 90% | ≥ 90% | ≥ 50% | –
24 | Cc1ccc(NC(=O)C2=C(O)CC(c3nc(-c4ccsc4)no3)NC2=O)nc1 (stereo not drawn) [3-168] | – | – | – | death rate [1]: ≥ 90%

Row | Compound | mortality at 500 µg/mL [2] | mortality at 500 µg/mL [3] | mortality at 10 µg/cm2 [4] | other results
25 | O=C(Nc1cnccn1)C1=C(O)CC(c2nc(-c3ccc(F)cn3)no2)NC1=O (stereo not drawn) [3-261] | ≥ 90% | – | – | mortality at 500 µg/mL [1]: ≥ 90%
26 | Cc1cccc(-c2cc(C3CC(O)=C(C(=O)Nc4cccnc4F)C(=O)N3)cnc2Cl)c1 (stereo not drawn) [2-275] | – | – | ≥ 50% | –
27 | O=C(Nc1ncc(C(F)(F)F)cn1)C1=C(O)CC(c2cnc(Cl)c(-c3cncc(F)c3)c2)NC1=O (stereo not drawn) [2-051] | – | – | – | death rate [1]: ≥ 90%
28 | O=C(Nc1ccc(F)cc1)C1=C(O)CC(c2nc(-c3ccc(C(F)(F)F)cc3)no2)NC1=O (stereo not drawn) [3-004] | – | – | – | death rate [3]: ≥ 90%
29 | Cc1ccnc(-c2noc(C3CC(O)=C(C(=O)Nc4ccc(F)cn4)C(=O)N3)n2)c1 (stereo not drawn) [3-153] | – | – | – | death rate [1]: ≥ 90%
30 | COc1ccc(NC(=O)C2=C(O)CC(c3cnc(Cl)c(-c4cccc(C)c4)c3)NC2=O)cc1 (stereo not drawn) [2-258] | – | – | – | death rate [2]: ≥ 90%
31 | Cc1ccnc(NC(=O)C2=C(O)CC(c3nc(-c4ccccn4)no3)NC2=O)c1 (stereo not drawn) [3-152] | – | – | – | mortality at 500 µg/mL [1]: ≥ 90%
32 | Cc1cncc(-c2noc(C3CC(O)=C(C(=O)Nc4ccc(F)cn4)C(=O)N3)n2)c1 (stereo not drawn) [3-130] | – | – | – | death rate [1]: ≥ 90%
33 | O=C(Nc1ccc(Cl)nn1)C1=C(O)CC(c2cnc(Cl)c(-c3cncc(F)c3)c2)NC1=O (stereo not drawn) [2-052] | – | – | – | death rate [1]: ≥ 90%
34 | COc1ccc(-c2cc(C3CC(O)=C(C(=O)Nc4ccc(Cl)nc4)C(=O)N3)cnc2Cl)cn1 (stereo not drawn) [2-017] | – | – | – | death rate [3]: ≥ 90%
35 | O=C(Nc1nccnn1)C1=C(O)CC(c2cnc(Cl)c(-c3ccc(F)cc3)c2)NC1=O (stereo not drawn) [2-237] | – | – | – | death rate [3]: ≥ 90%
36 | Cc1ccc(NC(=O)C2=C(O)CC(c3nc(-c4ccnc(F)c4)no3)NC2=O)cc1Cl (stereo not drawn) [3-267] | ≥ 90% | – | – | –
37 | O=C(Nc1ccc(C(F)(F)F)cn1)C1=C(O)CC(c2cnc(Cl)c(-c3ccc(F)cc3)c2)NC1=O (stereo not drawn) [2-230] | – | – | – | death rate [2]: ≥ 90%
38 | O=C(Nc1cc(F)ccn1)C1=C(O)CC(c2nc(-c3ccccn3)no2)NC1=O (stereo not drawn) [3-045] | ≥ 90% | – | ≥ 50% | mortality at 500 µg/mL [1]: ≥ 90%
39 | CC(C)(C)OC(=O)c1ccc(NC(=O)C2=C(O)CC(c3cnc(Cl)c(-c4ccc(F)cc4)c3)NC2=O)cc1 (stereo not drawn) [2-296] | ≥ 90% | – | – | –
40 | O=C(Nc1ncccn1)C1=C(O)CC(c2cnc(Cl)c(-c3ccc(F)cc3)c2)NC1=O (stereo not drawn) [2-238] | ≥ 90% | – | ≥ 50% | mortality at 500 µg/mL [1]: ≥ 90%
41 | Cc1csc(NC(=O)C2=C(O)CC(c3nc(-c4ccc(F)nc4)no3)NC2=O)n1 (stereo not drawn) [3-290] | – | – | – | death rate [1]: ≥ 90%
42 | Cc1ccc(NC(=O)C2=C(O)CC(c3cnc(Cl)c(-c4cccc(C)c4)c3)NC2=O)cc1 (stereo not drawn) [2-282] | ≥ 90% | ≥ 90% | ≥ 50% | –
43 | CC(=O)c1ccc(-c2cc(C3CC(O)=C(C(=O)Nc4ccc(Cl)cn4)C(=O)N3)cnc2Cl)cc1 (stereo not drawn) [2-066] | – | – | – | death rate [3]: ≥ 90%
44 | CC(=O)c1ccc(NC(=O)C2=C(O)CC(c3cnc(Cl)c(-c4ccc(F)cc4)c3)NC2=O)cc1 (stereo not drawn) [2-295] | – | – | – | death rate [3]: ≥ 90%
45 | Cc1cccc(-c2cc(C3CC(O)=C(C(=O)Nc4nccnn4)C(=O)N3)cnc2Cl)c1 (stereo not drawn) [2-270] | – | – | ≥ 50% | –
46 | O=C(Nc1ncccc1F)C1=C(O)CC(c2nc(-c3cnccc3F)no2)NC1=O (stereo not drawn) [3-237] | – | ≥ 90% | ≥ 50% | mortality at 500 µg/mL [1]: ≥ 90%
47 | O=C(Nc1ccc(O)cc1)C1=C(O)CC(c2cnc(Cl)c(-c3ccc(F)cc3)c2)NC1=O (stereo not drawn) [2-241] | – | – | – | death rate [3]: ≥ 90%
48 | O=C(Nc1ccc(F)cc1)C1=C(O)CC(c2cnc(Cl)c(-c3ccc(F)cc3)c2)NC1=O (stereo not drawn) [2-229] | ≥ 90% | ≥ 90% | ≥ 50% | –
